The results in this text go back to PubChem BioAssay (NCI).

Test systems include PC-3 prostate; DU-145 prostate; HOP-62 NSCLC; SF-268 CNS; HCT-116 colon; MDA-MB-231 breast; 786-0 renal; KM12 colon; IGROV1 ovarian; RXF 393 renal.
Assay in all cases: NCI-60 cell line screen, 48 h

“And” between values parts separate entries of the source, which are not always exact repeats. Equal entries are not always repeated.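 Cultured in 96-well plates, cells were exposed to test compound for 48 hours across five concentrations. GI50 is the concentration that inhibits growth by half. TGI is the concentration that stops growth completely.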 Some results are limits rather than exact numbers.

For the compound `Cc1ccc(/C=C2\NC(=S)N(CN3CCOCC3)C2=O)cc1`, the TGI in the assay with PC-3 prostate, with DU-145 prostate, in the assay on HOP-62 NSCLC, in the assay with SF-268 CNS, with HCT-116 colon and with MDA-MB-231 breast was more than 100 µM each time. Besides, the TGI in the assay with 786-0 renal, in the assay with KM12 colon and with IGROV1 ovarian was more than 100 µM in each case.

For the compound `CN(C)CCNCc1c2ccccc2c(CNCCN(C)C)c2ccccc12`, the TGI was 75.5 µM with HOP-62 NSCLC; more than 90.5 µM in the assay on SF-268 CNS; more than 90.1 µM with HCT-116 colon; more than 100 µM in the assay on KM12 colon; 62.7 µM in the assay on RXF 393 renal; more than 69.4 µM in the assay on IGROV1 ovarian.

Consider `N#CCCC(CC#N)N1CCN(CCO)CC1` (configuration not stated), for which the TGI in the assay on DU-145 prostate, with HOP-62 NSCLC, in the assay with SF-268 CNS, with HCT-116 colon, in the assay with MDA-MB-231 breast and in the assay on 786-0 renal was more than 100 µM in each case. The TGI with KM12 colon, in the assay with RXF 393 renal and in the assay with IGROV1 ovarian was more than 100 µM throughout.

As to `Cc1cc2c(c3oc(C(O)(CO)C4CO4)cc(=O)c13)C(=O)c1c(O)cccc1C2=O` (configuration not stated), the TGI with DU-145 prostate was 0.00249 µM and 0.00108 µM; in the assay with HOP-62 NSCLC, 0.00989 µM and 0.00353 µM; in the assay with MDA-MB-231 breast, 0.00843 µM and 0.00411 µM; with RXF 393 renal, 0.00254 µM; in the assay on IGROV1 ovarian it was 0.0019 µM and 0.00294 µM.

For `O=[N+]([O-])c1ccc(NC2OCC(O)C(O)C2O)cc1` (configuration not stated), the TGI in the assay with HOP-62 NSCLC, in the assay on SF-268 CNS, in the assay with 786-0 renal, in the assay with KM12 colon, in the assay on RXF 393 renal and in the assay on IGROV1 ovarian was more than 100 µM in each case.

Consider `COc1ccc(/C(Cl)=C(\C=O)c2ccc(F)cc2)cc1`, for which the TGI in the assay on HOP-62 NSCLC is 59.3 µM; with SF-268 CNS it was 89.3 µM; in the assay on HCT-116 colon it was 20 µM; with IGROV1 ovarian, 53.6 µM.

In the case of `O=[N+]([O-])c1ccc(/C=C/c2ccc(N=Nc3ccc(/C=C/c4ccc([N+](=O)[O-])cc4S(=O)(=O)O)c(S(=O)(=O)O)c3)cc2S(=O)(=O)O)c(S(=O)(=O)O)c1`, the TGI in the assay on HOP-62 NSCLC, in the assay with SF-268 CNS, in the assay with HCT-116 colon, in the assay with KM12 colon, in the assay on RXF 393 renal and in the assay on IGROV1 ovarian was more than 100 µM throughout.

Take `OCCCSc1ccccc1SCCCO`: the TGI in the assay on PC-3 prostate, in the assay on DU-145 prostate, in the assay with HOP-62 NSCLC, with SF-268 CNS, with HCT-116 colon and in the assay on MDA-MB-231 breast was more than 100 µM in each case. In addition, the TGI with 786-0 renal, with KM12 colon and with IGROV1 ovarian was more than 100 µM in each case.

For the compound `O=c1nc2n(cc1/C=C\Br)C1CC(O)C(CO2)O1` (configuration not stated), the TGI in the assay with DU-145 prostate, in the assay with HOP-62 NSCLC, with SF-268 CNS, with HCT-116 colon, with MDA-MB-231 breast and with 786-0 renal was more than 100 µM in each case. Besides, the figures for the TGI with KM12 colon, in the assay on RXF 393 renal and in the assay on IGROV1 ovarian were more than 100 µM, 57 µM and more than 100 µM, respectively.

In the case of `CCOC(=O)c1c(C)n(Cc2ccccc2)c2c1cc(O)c1[nH]c3c(c12)CCCC3`, the TGI stood at 9.92 µM with PC-3 prostate; 26.1 µM with DU-145 prostate; 24.6 µM in the assay on HOP-62 NSCLC; 5.16 µM in the assay on SF-268 CNS; 27.8 µM with HCT-116 colon; 19 µM in the assay on MDA-MB-231 breast. The figures for the TGI in the assay on 786-0 renal, with KM12 colon and with IGROV1 ovarian were 30.2 µM, 13.2 µM and 15.6 µM, respectively.

As to `c1ccc2c(c1)CCc1c-2n(CCN2CCCCC2)c2ccccc12`, the TGI was 27.1 µM in the assay on PC-3 prostate; more than 100 µM in the assay on DU-145 prostate; 30.1 µM in the assay with HOP-62 NSCLC; 49.5 µM with SF-268 CNS; 25.5 µM in the assay with HCT-116 colon; 28 µM in the assay with MDA-MB-231 breast. Further, the TGI with 786-0 renal was 33 µM; in the assay with KM12 colon, 32 µM; in the assay with IGROV1 ovarian it was 27.3 µM.

As for `O=C1CN(c2ccc(Cl)cc2)C(=O)CN1CCN1CC(=O)N(c2ccc(Cl)cc2)CC1=O`, the TGI in the assay on PC-3 prostate, with DU-145 prostate, in the assay with HOP-62 NSCLC, in the assay with SF-268 CNS, in the assay with HCT-116 colon and with 786-0 renal was more than 100 µM throughout. In addition, the TGI with KM12 colon, in the assay with RXF 393 renal and in the assay on IGROV1 ovarian was more than 100 µM each time.

Regarding `Cn1c(C(C#N)c2cc(Cl)ncn2)nc2ccccc21` (configuration not stated), the TGI in the assay with DU-145 prostate, in the assay with HOP-62 NSCLC, with SF-268 CNS, in the assay on HCT-116 colon, with MDA-MB-231 breast and in the assay with 786-0 renal was more than 100 µM each time. Further, the TGI in the assay with KM12 colon, with RXF 393 renal and in the assay on IGROV1 ovarian was more than 100 µM in each case.

With `CCSc1nc2sc(C)c(C)c2c(=O)n1-c1ccc(C(=O)O)cc1`, the TGI with HOP-62 NSCLC was more than 100 µM; in the assay on SF-268 CNS, more than 100 µM; in the assay on HCT-116 colon, 74.3 µM; in the assay with 786-0 renal, more than 100 µM; in the assay with KM12 colon, more than 100 µM; with RXF 393 renal, more than 100 µM. The TGI in the assay on IGROV1 ovarian is more than 100 µM.

With `C=C(C)C1Cc2c(cc(O)c3c(=O)c4ccccc4n(C)c23)O1` (configuration not stated), the TGI was 61.3 µM in the assay with HOP-62 NSCLC; 73 µM with SF-268 CNS; more than 100 µM with HCT-116 colon; more than 100 µM in the assay with KM12 colon; 33.9 µM with RXF 393 renal.

Consider `Cn1c(-c2csc(-c3ccc(Cl)cc3)n2)n[nH]c1=S`, for which the TGI with PC-3 prostate is more than 100 µM; in the assay on HOP-62 NSCLC, 30.2 µM; in the assay with SF-268 CNS it was 81.4 µM; in the assay with HCT-116 colon, 40.9 µM; in the assay with MDA-MB-231 breast it was 69.4 µM; in the assay with 786-0 renal it was 32.2 µM. Further, the TGI is more than 100 µM with KM12 colon, 46.3 µM with RXF 393 renal and 38 µM in the assay with IGROV1 ovarian.

Turning to `Cc1cc2c(cc1O)CC[C@@H]1[C@@H]2CC[C@]2(C)[C@@H](O)CC[C@@H]12`, the TGI with PC-3 prostate amounted to 37.7 µM; in the assay on DU-145 prostate it was 36.1 µM; with HOP-62 NSCLC it was 24.9 µM; in the assay on SF-268 CNS, 46.8 µM; in the assay on HCT-116 colon, 13.4 µM; in the assay with MDA-MB-231 breast, 21.8 µM. For the same compound, the values for the TGI in the assay on 786-0 renal, with KM12 colon and with IGROV1 ovarian were 30.9 µM, 15.7 µM and 45.4 µM, respectively. The GI50 is 16 µM in the assay with DU-145 prostate, 10.9 µM in the assay on HOP-62 NSCLC and 3.63 µM with HCT-116 colon.
